Data taken from patent US5480905A, “Benzodioxane derivatives” (Chugai Seiyaku Kabushiki Kaisha, priority 1991, dated 1996).
Structures can show the parent of a compound that is named as a salt.

Assays:
serotonin 1A receptor = biological target: T1, serotonin 1A receptor (Rattus norvegicus, UniProt P19327); test: Serotonin 1A receptor binding experiment (3H-8-OH-DPAT); details: rat cortex and hippocampal tissue; 0.5 nM 3H-8-OH-DPAT; IC50 in M; read-out: -logIC50 5-HT1A (converted)
T1 construct: the cortex and hippocampal tissue were extracted from the brain; from tissue; host or cells: brain cortex and hippocampus of 7-week-old male S.D. rats, washed membrane homogenate
T1 sequence (P19327 1-422): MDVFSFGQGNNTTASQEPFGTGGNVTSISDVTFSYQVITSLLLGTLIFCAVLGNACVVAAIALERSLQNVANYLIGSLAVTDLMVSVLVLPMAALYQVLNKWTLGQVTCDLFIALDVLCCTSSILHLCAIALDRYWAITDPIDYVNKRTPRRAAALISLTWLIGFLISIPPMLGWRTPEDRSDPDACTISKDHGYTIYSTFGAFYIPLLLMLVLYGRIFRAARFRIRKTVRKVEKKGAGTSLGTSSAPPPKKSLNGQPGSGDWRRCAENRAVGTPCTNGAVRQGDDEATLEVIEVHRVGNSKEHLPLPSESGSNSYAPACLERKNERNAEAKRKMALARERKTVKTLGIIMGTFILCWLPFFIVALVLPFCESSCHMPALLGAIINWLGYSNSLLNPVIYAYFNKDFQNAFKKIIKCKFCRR
Description: (§1) Affinity for intracerebral serotonin 1A and serotonin 2 receptor was checked in accordance with the method of Hall et al. (J. Neurochem., 44, 1685-1695, 1985) and the method of Leysen et al. (Mol. Pharmacol., 21, 301-314, 1982).
(§2) Stated more specifically, the cortex and hippocampal tissue were extracted from the brain of 7-wk old S.D. line male rats, mixed with 20 volumes of Tris-HCl buffer (50 mM, pH 7.7) and homogenized with a Teflon homogenizer. Thereafter, the homogenate was centrifuged at 39800×g for 20 min and the supernatant was discarded. Forty volumes of a buffer were added to the precipitate and the mixture was homogenized with a Polytron homogenizer, with the homogenate being centrifuged under the same condition as set forth above. The same procedure was repeated two more times and the final precipitate was homogenized with 40 volumes of a buffer; thereafter, the homogenate was stored at least overnight at -80° C. On the day when binding experiments were to be conducted, the homogenate was thawed at room temperature and incubated at 37° C. for 20 min to remove the endogenous serotonin.
(§3) Thereafter, centrifugation was conducted at 39800×g for 20 min and 40 volumes of a buffer were added to the precipitate, followed by homogenization. This procedure was repeated three times; to the final precipitate, a buffer was added in 65 volumes for the case of serotonin 1A receptor and in 80 volumes for the case of serotonin 2 receptor and the mixture was homogenized in preparation for the binding experiments that are described below. All procedures of experimentation except storage in a frozen state and thawing at room temperature were conducted at 4° C. or below.
A reaction solution containing 0.5 nM (final concentration) of 3H-8-hydroxy-2-(di-n-propylamino)tetralin (8-OH-DPAT), […] and 500 μl of brain homogenate in 1.0 ml (final volume) of a buffer was incubated at 25° C. for 30 min. Thereafter, the reaction solution was filtered by rapid passage through a glass filler. The filter was washed rapidly with an ice-cooled buffer (3 ml) three times, put into a scintillation vial together with a scintillation cocktail, and left to stand overnight at 4° C. On the next day, the vial was agitated well and measurements were conducted with a scintillation counter. To determine the amount of specific binding, the amount of binding in the presence of excess unlabeled serotonin (10 μM) was subtracted from the total amount of binding. As an index for the affinity of a test compound for either receptor, the concentration at which the specific binding of ^3 H-DPAT was inhibited by 50% (IC50, M) was determined using computer software EBDA/LIGAND (Biosoft).

serotonin 2 receptor = biological target: T2, serotonin 2 receptor (Rattus norvegicus, UniProt P14842); test: Serotonin 2 receptor binding experiment (3H-ketancerine); details: rat cortex and hippocampal tissue; 0.5 nM 3H-ketancerine; IC50 in M; read-out: -logIC50 5-HT2 (converted)
T2 construct: the cortex and hippocampal tissue were extracted from the brain; from tissue; host or cells: brain cortex and hippocampus of 7-week-old male S.D. rats, washed membrane homogenate
T2 sequence (P14842 whole entry): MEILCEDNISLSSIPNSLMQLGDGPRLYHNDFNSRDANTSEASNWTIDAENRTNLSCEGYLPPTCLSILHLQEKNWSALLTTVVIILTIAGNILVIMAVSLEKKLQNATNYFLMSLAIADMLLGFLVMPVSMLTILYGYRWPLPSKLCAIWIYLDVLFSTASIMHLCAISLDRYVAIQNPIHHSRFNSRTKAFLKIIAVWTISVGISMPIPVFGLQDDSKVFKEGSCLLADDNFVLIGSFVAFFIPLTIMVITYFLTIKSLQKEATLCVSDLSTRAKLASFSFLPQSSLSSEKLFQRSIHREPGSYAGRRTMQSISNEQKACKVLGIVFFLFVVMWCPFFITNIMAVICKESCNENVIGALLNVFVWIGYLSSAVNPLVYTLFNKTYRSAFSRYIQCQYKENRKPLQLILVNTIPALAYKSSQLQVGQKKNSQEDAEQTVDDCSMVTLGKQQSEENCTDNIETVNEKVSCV
Description: as §1, §2, §3
A reaction solution containing 0.5 nM (final concentration) of ^3 H-ketancerine and 500 μl of brain homogenate in 1.0 ml (final volume) of a buffer was incubated at 30° C. for 30 min. Subsequent procedures were the same as in the serotonin 1A receptor binding experiment and IC50 (M) was determined accordingly. To determine the amount of specific binding, the amount of binding in the presence of excess unlabelled methysergide ([…]) was subtracted from the total amount of binding.

S.D. line male rats [1] = test: Antidepressant effect, compelled swim test (Porsolt), time over which rats remain motionless; format: in vivo, rat; design: Antidepressant effect / Antidepressant effect, longevity: scale not given here; details: for inhibition in vivo at 20 mg/kg: Rattus norvegicus, po, 0.5 h, 30 min before swim, read-out: Antidepressant effect, Efficacy
Description: An antidepression test was conducted in accordance with the method of Porsolt et al. (Europ. J. Pharmacol., 47, 379-391, 1978). Stated more specifically, 7-wk old S.D. line male rats were placed in a glass cylinder (18 cm^.phi. ×40 cm^H) for 15 min. The cylinder was filled with water (25° C.) to a depth of 15 cm. Thereafter, the rats were placed in a hot environment (32° C.) for 15 min before they were returned to the cage. Twenty-four hours later, the rats were compelled again to swim in the same cylinder for 5 min and the total time over which the rats remained motionless was measured. A test drug was administered perorally to each animal 30 min before it was compelled to swim for 5 min. Antidepressant agents are known to be capable of specifically reducing the time over which the rats would remain motionless (Psyehopharmaeol., 83, 1-16, 1984, and ibid., 94, 147-160, 1988). The antidepressant effect was calculated by the following formula: [formula]
(§4) The procedure of Test Examples 2 and 3 were repeated except that test compounds were administered perorally in a dose of 10 mg/kg.
(§5) The procedures of Test Example 2 and 3 were repeated, except that test compounds were administered perorally in a dose of 20 mg/kg to check the longevity of their antianxiety and antidepressant effects for 0.5, 2 and 4 h.

S.D. line male rats [2] = test: Antianxiety effect, water drinking under punishment (Vogel); format: in vivo, rat; design: Antianxiety effect / Antianxiety effect, longevity: unit not given here; details: for change in vivo at 20 mg/kg: Rattus norvegicus, po, read-out: Antianxiety effect, Efficacy
Description: Antianxiety test was conducted in accordance with a method adapted from the method of Vogel et al. (Psychopharmacol., 21, 1-7, 1971). Stated more specifically, S.D. line male rats weighing 250-300 g were entirely kept from water for 24 h and then placed in a concrete experimental box. […] The bottom of the box was made of a stainless steel grid, from which electric shock (0.2 mA, 0.5 sec) could be applied to the limbs of rats. The test schedule was as follows: first, the rats were acclimatized to the experimental box and trained for drinking water; this was done for 3 min without electric shock. The quantity of water drunk by the rats was then measured (under non-punishment). Then, the rats were kept from drinking water for 24 h. Thereafter, the quantity of water drunk by each rat was measured (before administration of test compound) under such conditions that an electric shock was applied each time a rat drank one water drop (under punishment).Thirty minutes later, a test drug was administered perorally and after an additional 20 min, the quantity of water drunk by each rat was again measured under punishment (after administration of test compound). The quantity of water drunk by rats will decrease under punishment but it is known that the initial level can be restored by administering an antianxiety agent.
The antianxiety effect of a test compound was calculated by the following formula: [formula]
as §4, §5

[3] = peroral 20 mg/kg, 0.5 h after administration
[4] = peroral 20 mg/kg, 2.0 h after administration
[5] = peroral 20 mg/kg, 4.0 h after administration

| IC50 (serotonin 1A receptor) | IC50 (serotonin 2 receptor) | SMILES | other results |
| --- | --- | --- | --- |
| 3.98 nM | 1000 nM | C=CCN(CCNC(=O)C12CC3CC(CC(C3)C1)C2)CC1COc2cccc(C)c2O1 (stereo not shown) [Compound 9, N-{[2-(8-methyl-1,4-benzodioxan-2-ylmethyl)allylamino]ethyl}tricyclo[3,3,1^3, ^7]decane-1-carboxyamide] |  |
| 10 nM | 631 nM | CCCN(CCNC(=O)C12CC3CC(CC(C3)C1)C2)CC1COc2cccc(C)c2O1 (stereo not shown) [Compound 10] |  |
| 63.1 nM | 316 nM | CC(C)Cc1ccc2c(c1)OC(CNCCNC(=O)C13CC4CC(CC(C4)C1)C3)CO2 (stereo not shown) [Compound 13, N-{[2-(7-isobutyl-1,4-benzodioxan-2ylmethyl)amino]ethyl}tricyclo[3,3,1,1^3, ^7]decane-1-carboxyamide] |  |
| 2.51 nM | 158 nM | O=C(NCCNCC1COc2cc(O)ccc2O1)C12CC3CC(CC(C3)C1)C2 (stereo not shown) [Compound 16, N-{[2-(6-hydroxy-1,4-benzodioxan-2ylmethyl)amino]ethyl}tricyclo[3,3,1,1^3, ^7]decane-1-carboxyamide] | change in vivo at 20 mg/kg (S.D. line male rats [2]; peroral 20 mg/kg): 46.5 ± 4.7%; Antianxiety effect (S.D. line male rats [2]; peroral 20 mg/kg): almost comparable effects to WY-50324 |
| 0.251 nM | 251 nM | O=C(NCCNCC1COc2ccc(O)cc2O1)C12CC3CC(CC(C3)C1)C2 (stereo not shown) [Compound 17, N-{[2-(7-hydroxy-1,4-benzodioxan-2ylmethyl)amino]ethyl}tricyclo[3,3,^3, ^7]decane-1-carboxyamide] | change in vivo at 20 mg/kg (S.D. line male rats [2]; peroral 20 mg/kg): 66.6 ± 8.7%; Antianxiety effect (S.D. line male rats [2]; peroral 20 mg/kg): comparable effects to MDL-73005 |
| 6.31 nM | 1000 nM | O=C(NCCNCC1COc2c(O)cccc2O1)C12CC3CC(CC(C3)C1)C2 (stereo not shown) [Compound 19, N-{[2-(5-hydroxy-1,4-benzodioxan-2ylmethyl)amino]ethyl)tricyclo[3,3,1,1^3, ^7]decane-1-1-carboxyamide] |  |
| > 31.6 nM | 200 nM | Cc1cc(C)c2c(c1)OCC(CNCCNC(=O)C13CC4CC(CC(C4)C1)C3)O2 (stereo not shown) [Compound 20, N-{[2(6,8-dimethyl-1,4-benzodioxan-2ylmethyl)amino]ethyl)tricyclo[3,3,1,1^3, ^7]decane-1-carboxyamide] |  |
| 158 nM | > 1000 nM | Cc1cccc2c1OC(CN(CCNC(=O)C13CC4CC(CC(C4)C1)C3)Cc1ccccc1)CO2 (stereo not shown) [Compound a, N-{[2-(8-methyl 1,4-benzodioxan-2-ylmethyl)benzylamino]ethyl}tricyclo[3,3,1,^3, ^7]decane-1-carboxyamide] |  |

| SMILES | IC50 (serotonin 1A receptor) | IC50 (serotonin 2 receptor) | other results |
| --- | --- | --- | --- |
| Cc1cccc2c1OC(CNCCNC(=O)C13CC4CC(CC(C4)C1)C3)CO2 (single isomer, unassigned; (+)) [Compound 8, (+)-N-{[2-(8-methyl-1,4-benzodioxan-2ylmethyl)amino]ethyl}tricyclo[3,3,1,1^3, ^7]decane-1-carboxyamide hydrochloride] | 6.31 nM | 50.1 nM |  |
| Cc1cccc2c1OC(CNCCNC(=O)C13CC4CC(CC(C4)C1)C3)CO2 (single isomer, unassigned; (-)) [Compound 7, (-)-N-{[2-(8-methyl-1,4-benzodioxan-2ylmethyl)amino]ethyl}tricyclo[3,3,1^3, ^7]decane-1carboxyamide hydrochloride] | 0.316 nM | 15.8 nM | Antidepressant effect (S.D. line male rats [1]; peroral 10 mg/kg): 62.7 ± 12.4; Antidepressant effect, longevity (S.D. line male rats [1]; [3]): 72.1; Antidepressant effect, longevity (S.D. line male rats [1]; [4]): 76.9; Antidepressant effect, longevity (S.D. line male rats [1]; [5]): 38.1; Antianxiety effect (S.D. line male rats [2]; peroral 10 mg/kg): 45.4 ± 3.4; Antianxiety and antidepressant effects (S.D. line male rats [2]; peroral 10 mg/kg, Table 6): superiority; Antianxiety effect, longevity (S.D. line male rats [2]; [3]): 66.0; Antianxiety effect, longevity (S.D. line male rats [2]; [4]): 51.6; Antianxiety effect, longevity (S.D. line male rats [2]; [5]): 26.1 |
| O=C(NCCNCC1COc2ccccc2O1)C12CC3CC(CC(C3)C1)C2 (stereo not shown) [Compound 2, N-{[2-(1,4-benzodioxan-2-ylmethyl)amino]ethyl}tricyclo[3,3,1,1^3, ^7]decane-1-carboxyamide] | 302 nM | 35.5 nM | inhibition in vivo at 20 mg/kg (S.D. line male rats [1]; peroral 20 mg/kg): 85 ± 8.5%; Antidepressant effect (S.D. line male rats [1]; peroral 20 mg/kg): better antidepressant effects than WY-50324; change in vivo at 20 mg/kg (S.D. line male rats [2]; peroral 20 mg/kg): 39.3 ± 10.8%; Antianxiety effect (S.D. line male rats [2]; peroral 20 mg/kg): almost comparable effects to WY-50324 |
| Cc1ccc(C)c2c1OCC(CNCCNC(=O)C13CC4CC(CC(C4)C1)C3)O2 (stereo not shown) [Compound 11, N-{[2-(5,8-dimethyl-1,4-benzodioxan-2-ylmethyl)amino]ethyl}tricyclo[3,3,1^3, ^7]decane-1-carboxyamide] | 3.98 nM | 79.4 nM |  |
| COc1ccc2c(c1)OC(CNCCNC(=O)C13CC4CC(CC(C4)C1)C3)CO2 (stereo not shown) [Compound 14, N-{[2-(7-methoxy-1,4-benzodioxan-2-ylmethyl)amino]ethyl}tricyclo[3,3,1,1^3, ^7]decane-1-carboxyamide] | 0.398 nM | 25.1 nM | inhibition in vivo at 20 mg/kg (S.D. line male rats [1]; peroral 20 mg/kg): 46.9 ± 7.1% |
| CC(=O)c1cccc2c1OC(CNCCNC(=O)C13CC4CC(CC(C4)C1)C3)CO2 (stereo not shown) [Compound 15, N-{[2-(8-acetyl-1,4benzodioxan-2ylmethyl)amino]ethyl}tricyclo[3,3,1,1^3, ^7]decane-1-carboxyamide] | 3.16 nM | 63.1 nM |  |
